Assay results from patent publication EP4722207A1, “OXOISOINDOLINYL-SUBSTITUTED TETRAHYDROPYRIMIDINEDIONE DERIVATIVE AND USE THEREOF” (Gluetacs Therapeutics (Shanghai) Co., Ltd., priority 2023, dated 2024).

How the values were obtained:
WEE1 = target: T1, WEE1 (Homo sapiens, UniProt P30291+Q96SW2); assay: Western-blot assay, substrate protein degradation in hPBMCs: WEE1; format: cell-based; conditions: compounds at 50 nM and 500 nM, 24 hours
T1 construct: effects of the compounds of the present disclosure on the expression of target proteins in cells; endogenous in cells; host or cells: human PBMCs (hPBMCs)

IKZF1 = target: T2, IKZF1 (Homo sapiens, UniProt Q13422+Q96SW2); assay: Western-blot assay, substrate protein degradation in hPBMCs: IKZF1; format: cell-based; conditions: compounds at 50 nM and 500 nM, 24 hours
T2 construct: effects of the compounds of the present disclosure on the expression of target proteins in cells; endogenous in cells; host or cells: human PBMCs (hPBMCs)

IKZF2 = target: T3, IKZF2 (Homo sapiens, UniProt Q96SW2+Q9UKS7); assay: Western-blot assay, substrate protein degradation in hPBMCs: IKZF2; format: cell-based; conditions: compounds at 50 nM and 500 nM, 24 hours
T3 construct: effects of the compounds of the present disclosure on the expression of target proteins in cells; endogenous in cells; host or cells: human PBMCs (hPBMCs)

IKZF3 = target: T4, IKZF3 (Homo sapiens, UniProt Q96SW2+Q9UKT9); assay: Western-blot assay, substrate protein degradation in hPBMCs: IKZF3; format: cell-based; conditions: compounds at 50 nM and 500 nM, 24 hours
T4 construct: effects of the compounds of the present disclosure on the expression of target proteins in cells; endogenous in cells; host or cells: human PBMCs (hPBMCs)

CK1α = target: T5, CK1α (Homo sapiens, UniProt P48729+Q96SW2); assay: Western-blot assay, substrate protein degradation in hPBMCs: CK1α; format: cell-based; conditions: compounds at 50 nM and 500 nM, 24 hours
T5 construct: effects of the compounds of the present disclosure on the expression of target proteins in cells; endogenous in cells; host or cells: human PBMCs (hPBMCs)

GSPT1 = target: T6, GSPT1 (Homo sapiens, UniProt P15170+Q96SW2); assay: Western-blot assay, substrate protein degradation in hPBMCs: GSPT1; format: cell-based; conditions: compounds at 50 nM and 500 nM, 24 hours
T6 construct: effects of the compounds of the present disclosure on the expression of target proteins in cells; endogenous in cells; host or cells: human PBMCs (hPBMCs)

MM.1S = assay: Cell viability assay (CellTiter-Meiluncell Luminescent), tumor cell proliferation, MM.1S; conditions: Homo sapiens, MM1.S, 96 h, read-out: inhibitory activity (IC50, nM) against tumor cells proliferation, MM.1S
MGC803 = assay: Cell viability assay (CellTiter-Meiluncell Luminescent), tumor cell proliferation, MGC803; conditions: Homo sapiens, MGC-803, 96 h, read-out: inhibitory activity (IC50, nM) against tumor cells proliferation, MGC803
Method: (§1) On the following day, the test compounds of the present disclosure were subjected to serial dilution. […] Subsequently, 0.5 µL of the test compound dilution was transferred into the 96-well plate containing the cells, with each well containing 100 µL of cell culture medium. […] Into the 96-well plate, the diluted test compounds and corresponding detection reagents were added, resulting in final test compound concentrations of 500 nM and 10 nM, respectively.
(§2) After the cells were treated with the compounds of the present disclosure for a specified period, the cell viability assay reagent was added to the culture medium according to the kit's instructions to determine cell viability. […] All controls were treated using the same procedure as the compounds of the present disclosure. The growth inhibition curves for the compounds of the present disclosure were plotted using Prism GraphPad software, and the IC50 values were calculated therefrom.

Jurkat = assay: Cell viability assay (CellTiter-Meiluncell Luminescent), tumor cell proliferation, Jurkat; conditions: Homo sapiens, 96 h, read-out: inhibitory activity (IC50, nM) against tumor cells proliferation, Jurkat
Method: as §1, §2

T6 sequence (P15170 whole entry): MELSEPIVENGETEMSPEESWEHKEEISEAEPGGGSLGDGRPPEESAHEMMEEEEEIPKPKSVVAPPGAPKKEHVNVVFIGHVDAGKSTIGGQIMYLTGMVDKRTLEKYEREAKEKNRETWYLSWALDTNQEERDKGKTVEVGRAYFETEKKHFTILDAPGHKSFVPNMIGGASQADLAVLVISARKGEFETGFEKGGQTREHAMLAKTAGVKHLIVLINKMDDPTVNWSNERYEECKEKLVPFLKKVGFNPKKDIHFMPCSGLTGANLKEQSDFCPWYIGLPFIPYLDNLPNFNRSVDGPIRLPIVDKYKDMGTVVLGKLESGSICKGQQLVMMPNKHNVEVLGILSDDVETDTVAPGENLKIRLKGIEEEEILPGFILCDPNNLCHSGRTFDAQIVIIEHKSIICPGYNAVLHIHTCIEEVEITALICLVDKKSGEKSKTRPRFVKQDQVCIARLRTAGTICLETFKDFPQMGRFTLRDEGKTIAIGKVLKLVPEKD
T6 sequence (Q96SW2 whole entry): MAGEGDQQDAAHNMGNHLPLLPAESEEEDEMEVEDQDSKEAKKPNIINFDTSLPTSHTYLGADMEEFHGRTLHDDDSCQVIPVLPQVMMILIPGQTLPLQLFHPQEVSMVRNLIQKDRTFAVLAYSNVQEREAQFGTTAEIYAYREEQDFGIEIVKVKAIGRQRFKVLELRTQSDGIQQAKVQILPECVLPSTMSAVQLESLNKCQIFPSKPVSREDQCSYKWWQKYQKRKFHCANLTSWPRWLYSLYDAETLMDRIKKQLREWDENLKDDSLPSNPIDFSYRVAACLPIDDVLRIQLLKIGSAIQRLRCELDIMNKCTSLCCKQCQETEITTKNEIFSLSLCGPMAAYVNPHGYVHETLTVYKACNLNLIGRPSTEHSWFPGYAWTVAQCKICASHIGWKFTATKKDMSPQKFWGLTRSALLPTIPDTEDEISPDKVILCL
T6 sequence (Q16531 whole entry partner): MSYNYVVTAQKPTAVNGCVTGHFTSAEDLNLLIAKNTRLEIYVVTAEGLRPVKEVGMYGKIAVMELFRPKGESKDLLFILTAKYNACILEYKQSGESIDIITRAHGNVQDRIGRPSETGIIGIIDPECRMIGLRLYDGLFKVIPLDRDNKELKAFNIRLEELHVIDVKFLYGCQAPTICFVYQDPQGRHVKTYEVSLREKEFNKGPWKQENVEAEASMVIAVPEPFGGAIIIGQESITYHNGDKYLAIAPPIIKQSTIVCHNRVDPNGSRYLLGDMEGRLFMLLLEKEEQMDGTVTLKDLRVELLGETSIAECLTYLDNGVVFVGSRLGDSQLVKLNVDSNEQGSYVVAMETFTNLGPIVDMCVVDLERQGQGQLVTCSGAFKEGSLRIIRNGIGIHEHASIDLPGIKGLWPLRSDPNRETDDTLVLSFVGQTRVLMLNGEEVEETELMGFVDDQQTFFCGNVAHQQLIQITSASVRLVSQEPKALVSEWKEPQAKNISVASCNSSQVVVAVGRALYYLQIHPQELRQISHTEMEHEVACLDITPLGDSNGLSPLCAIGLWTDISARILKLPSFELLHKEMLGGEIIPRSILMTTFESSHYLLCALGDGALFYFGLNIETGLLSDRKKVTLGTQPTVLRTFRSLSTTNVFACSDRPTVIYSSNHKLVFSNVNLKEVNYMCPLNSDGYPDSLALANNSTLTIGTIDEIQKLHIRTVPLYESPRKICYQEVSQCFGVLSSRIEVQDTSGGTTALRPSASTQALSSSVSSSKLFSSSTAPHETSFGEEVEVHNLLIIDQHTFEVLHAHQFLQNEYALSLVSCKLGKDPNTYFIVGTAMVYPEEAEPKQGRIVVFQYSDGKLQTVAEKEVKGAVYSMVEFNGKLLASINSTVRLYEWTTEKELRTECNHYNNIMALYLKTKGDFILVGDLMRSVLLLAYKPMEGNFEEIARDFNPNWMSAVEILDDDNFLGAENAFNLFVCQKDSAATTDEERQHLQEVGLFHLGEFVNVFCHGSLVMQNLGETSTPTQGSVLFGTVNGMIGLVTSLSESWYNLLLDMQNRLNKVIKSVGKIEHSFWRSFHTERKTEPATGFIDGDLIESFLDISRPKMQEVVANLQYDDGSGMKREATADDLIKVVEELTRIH
T3 sequence (Q9UKS7 whole entry): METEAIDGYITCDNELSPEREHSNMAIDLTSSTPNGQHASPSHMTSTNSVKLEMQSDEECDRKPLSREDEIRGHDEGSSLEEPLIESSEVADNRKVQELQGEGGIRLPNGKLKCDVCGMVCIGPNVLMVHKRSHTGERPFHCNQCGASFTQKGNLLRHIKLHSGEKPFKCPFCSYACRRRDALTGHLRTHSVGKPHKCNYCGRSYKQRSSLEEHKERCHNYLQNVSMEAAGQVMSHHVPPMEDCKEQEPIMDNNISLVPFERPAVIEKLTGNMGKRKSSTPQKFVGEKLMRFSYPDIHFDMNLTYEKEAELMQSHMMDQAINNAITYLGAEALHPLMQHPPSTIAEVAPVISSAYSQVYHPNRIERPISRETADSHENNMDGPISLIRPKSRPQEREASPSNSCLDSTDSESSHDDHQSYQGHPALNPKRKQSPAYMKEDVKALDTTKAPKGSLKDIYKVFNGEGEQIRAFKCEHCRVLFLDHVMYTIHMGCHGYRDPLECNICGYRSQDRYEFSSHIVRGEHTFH
T3 sequence (Q96SW2 whole entry): as the sequence (Q96SW2 whole entry) above
T3 sequence (Q16531 whole entry partner): as the sequence (Q16531 whole entry partner) above
T5 sequence (P48729 whole entry): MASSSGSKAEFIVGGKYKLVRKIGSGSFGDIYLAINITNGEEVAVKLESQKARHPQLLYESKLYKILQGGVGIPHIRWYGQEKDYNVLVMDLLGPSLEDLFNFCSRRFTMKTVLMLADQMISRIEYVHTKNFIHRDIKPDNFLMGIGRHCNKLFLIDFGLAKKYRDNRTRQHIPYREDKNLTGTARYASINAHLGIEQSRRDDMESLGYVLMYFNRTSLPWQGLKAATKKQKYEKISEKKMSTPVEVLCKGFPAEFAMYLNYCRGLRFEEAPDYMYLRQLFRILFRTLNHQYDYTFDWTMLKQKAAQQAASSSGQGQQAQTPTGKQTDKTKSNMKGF
T5 sequence (Q96SW2 whole entry): as the sequence (Q96SW2 whole entry) above
T5 sequence (Q16531 whole entry partner): as the sequence (Q16531 whole entry partner) above
T2 sequence (Q13422 whole entry): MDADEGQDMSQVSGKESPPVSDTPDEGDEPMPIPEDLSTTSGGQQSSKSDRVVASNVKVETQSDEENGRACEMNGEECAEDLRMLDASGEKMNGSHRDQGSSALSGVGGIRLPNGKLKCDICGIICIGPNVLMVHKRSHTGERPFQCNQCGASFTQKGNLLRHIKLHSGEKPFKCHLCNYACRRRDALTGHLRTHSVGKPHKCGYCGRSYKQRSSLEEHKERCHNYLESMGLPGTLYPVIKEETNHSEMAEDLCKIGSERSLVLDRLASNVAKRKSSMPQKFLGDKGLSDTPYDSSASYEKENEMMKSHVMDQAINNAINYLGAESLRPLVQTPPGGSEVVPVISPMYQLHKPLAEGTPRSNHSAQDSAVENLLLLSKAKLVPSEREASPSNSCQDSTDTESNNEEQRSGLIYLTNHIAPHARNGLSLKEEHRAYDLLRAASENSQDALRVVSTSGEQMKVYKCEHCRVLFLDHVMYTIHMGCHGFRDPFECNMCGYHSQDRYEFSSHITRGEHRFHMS
T2 sequence (Q96SW2 whole entry): as the sequence (Q96SW2 whole entry) above
T2 sequence (Q16531 whole entry partner): as the sequence (Q16531 whole entry partner) above
T4 sequence (Q9UKT9 whole entry): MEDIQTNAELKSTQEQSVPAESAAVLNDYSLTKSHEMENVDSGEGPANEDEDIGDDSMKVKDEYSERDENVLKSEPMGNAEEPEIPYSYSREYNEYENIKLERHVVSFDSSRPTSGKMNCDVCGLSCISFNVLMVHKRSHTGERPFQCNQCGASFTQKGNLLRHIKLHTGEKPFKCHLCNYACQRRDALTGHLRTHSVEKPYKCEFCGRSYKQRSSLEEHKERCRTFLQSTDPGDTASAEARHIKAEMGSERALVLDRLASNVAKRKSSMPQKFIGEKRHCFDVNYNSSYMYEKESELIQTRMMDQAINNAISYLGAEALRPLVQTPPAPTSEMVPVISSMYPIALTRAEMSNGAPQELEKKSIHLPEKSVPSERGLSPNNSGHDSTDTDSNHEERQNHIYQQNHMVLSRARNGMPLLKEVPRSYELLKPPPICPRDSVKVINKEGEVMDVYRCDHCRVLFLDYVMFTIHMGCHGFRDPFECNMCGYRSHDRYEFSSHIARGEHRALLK
T4 sequence (Q96SW2 whole entry): as the sequence (Q96SW2 whole entry) above
T4 sequence (Q16531 whole entry partner): as the sequence (Q16531 whole entry partner) above

SMILES | WEE1 substrate protein remaining % (WEE1) | IKZF1 substrate protein remaining % (IKZF1) | IKZF2 substrate protein remaining % (IKZF2) | IKZF3 substrate protein remaining % (IKZF3) | CK1α substrate protein remaining % (CK1α) | GSPT1 substrate protein remaining % (GSPT1) | IC50 (MM.1S) | IC50 (MGC803) | IC50 (Jurkat)
O=C1CCN(N2Cc3cc(CN4CCN(c5cccc6sccc56)CC4)ccc3C2=O)C(=O)N1 [GT-04866, 1-(5-((4-(benzo[b]thiophen-4-yl)piperazin-1-yl)methyl)-1-oxoisoindolin-2-yl)dihydropyrimidine-2,4(1H,3H)-dione] | A ("A" is defined as 0% ≤ substrate protein remaining % ≤ 80%) | A ("A" is defined as 0% ≤ substrate protein remaining % ≤ 80%) | B ("B" is defined as 80%< substrate protein remaining %≤ 100%) | B ("B" is defined as 80%< substrate protein remaining %≤ 100%) | B ("B" is defined as 80%< substrate protein remaining %≤ 100%) | A ("A" is defined as 0% ≤ substrate protein remaining % ≤ 80%) | 100 to 300 nM | 300 to 500 nM | 300 to 500 nM
O=C1CCN(N2Cc3cc(CN4CC=C(c5cccs5)CC4)ccc3C2=O)C(=O)N1 [GT-04868, 1-(1-oxo-5-((4-(thiophen-2-yl)-3,6-dihydropyridin-1(2H)-yl)methyl)isoindolin-2-yl)dihydropyrimidine-2,4(1H,3H)-dione] | A ("A" is defined as 0% ≤ substrate protein remaining % ≤ 80%) | A ("A" is defined as 0% ≤ substrate protein remaining % ≤ 80%) | B ("B" is defined as 80%< substrate protein remaining %≤ 100%) | B ("B" is defined as 80%< substrate protein remaining %≤ 100%) | A ("A" is defined as 0% ≤ substrate protein remaining % ≤ 80%) | A ("A" is defined as 0% ≤ substrate protein remaining % ≤ 80%) | 100 to 300 nM | 300 to 500 nM | 300 to 500 nM
Cc1ccc(C2=CCN(Cc3ccc4c(c3)CN(N3CCC(=O)NC3=O)C4=O)CC2)s1 [GT-04869, 1-(5-((4-(5-methylthiophen-2-yl)-3,6-dihydropyridin-1(2H)-yl)methyl)-1-oxoisoindolin-2-yl)dihydropyrimidine-2,4(1H,3H)-dione] | A ("A" is defined as 0% ≤ substrate protein remaining % ≤ 80%) | A ("A" is defined as 0% ≤ substrate protein remaining % ≤ 80%) | A ("A" is defined as 0% ≤ substrate protein remaining % ≤ 80%) | A ("A" is defined as 0% ≤ substrate protein remaining % ≤ 80%) | B ("B" is defined as 80%< substrate protein remaining %≤ 100%) | A ("A" is defined as 0% ≤ substrate protein remaining % ≤ 80%) | 50 to 100 nM | 300 to 500 nM | 300 to 500 nM
Cc1ccsc1C1=CCN(Cc2ccc3c(c2)CN(N2CCC(=O)NC2=O)C3=O)CC1 [GT-04870, 1-(5-((4-(3-methylthiophen-2-yl)-3,6-dihydropyridin-1(2H)-yl)methyl)-1-oxoisoindolin-2-yl)dihydropyrimidine-2,4(1H,3H)-dione] | A ("A" is defined as 0% ≤ substrate protein remaining % ≤ 80%) | A ("A" is defined as 0% ≤ substrate protein remaining % ≤ 80%) | A ("A" is defined as 0% ≤ substrate protein remaining % ≤ 80%) | A ("A" is defined as 0% ≤ substrate protein remaining % ≤ 80%) | B ("B" is defined as 80%< substrate protein remaining %≤ 100%) | A ("A" is defined as 0% ≤ substrate protein remaining % ≤ 80%) | 50 to 100 nM | 100 to 300 nM | 100 to 300 nM
O=C1CCN(N2Cc3cc(CN4CC=C(c5ccsc5)CC4)ccc3C2=O)C(=O)N1 [GT-04871, 1-(1-oxo-5-((4-(thiophen-3-yl)-3,6-dihydropyridin-1(2H)-yl)methyl)isoindolin-2-yl)dihydropyrimidine-2,4(1H,3H)-dione] | A ("A" is defined as 0% ≤ substrate protein remaining % ≤ 80%) | A ("A" is defined as 0% ≤ substrate protein remaining % ≤ 80%) | B ("B" is defined as 80%< substrate protein remaining %≤ 100%) | B ("B" is defined as 80%< substrate protein remaining %≤ 100%) | B ("B" is defined as 80%< substrate protein remaining %≤ 100%) | A ("A" is defined as 0% ≤ substrate protein remaining % ≤ 80%) | 100 to 300 nM | 300 to 500 nM | 300 to 500 nM
Cc1cscc1C1=CCN(Cc2ccc3c(c2)CN(N2CCC(=O)NC2=O)C3=O)CC1 [GT-04872, 1-(5-((4-(4-methylthiophen-3-yl)-3,6-dihydropyridin-1(2H)-yl)methyl)-1-oxoisoindolin-2-yl)dihydropyrimidine-2,4(1H,3H)-dione] | A ("A" is defined as 0% ≤ substrate protein remaining % ≤ 80%) | A ("A" is defined as 0% ≤ substrate protein remaining % ≤ 80%) | B ("B" is defined as 80%< substrate protein remaining %≤ 100%) | B ("B" is defined as 80%< substrate protein remaining %≤ 100%) | B ("B" is defined as 80%< substrate protein remaining %≤ 100%) | A ("A" is defined as 0% ≤ substrate protein remaining % ≤ 80%) | 10 to 50 nM | 100 to 300 nM | 100 to 300 nM
Cc1cc(C2=CCN(Cc3ccc4c(c3)CN(N3CCC(=O)NC3=O)C4=O)CC2)cs1 [GT-04873, 1-(5-((4-(5-methylthiophen-3-yl)-3,6-dihydropyridin-1(2H)-yl)methyl)-1-oxoisoindolin-2-yl)dihydropyrimidine-2,4(1H,3H)-dione] | A ("A" is defined as 0% ≤ substrate protein remaining % ≤ 80%) | A ("A" is defined as 0% ≤ substrate protein remaining % ≤ 80%) | B ("B" is defined as 80%< substrate protein remaining %≤ 100%) | A ("A" is defined as 0% ≤ substrate protein remaining % ≤ 80%) | B ("B" is defined as 80%< substrate protein remaining %≤ 100%) | A ("A" is defined as 0% ≤ substrate protein remaining % ≤ 80%) | 50 to 100 nM | 100 to 300 nM | 100 to 300 nM
O=C1CCN(N2Cc3cc(CN4CCN(C(c5ccccc5)c5ccccc5)CC4)ccc3C2=O)C(=O)N1 [GT-04889, 1-(5-((4-benzhydrylpiperazin-1-yl)methyl)-1-oxoisoindolin-2-yl)dihydropyrimidine-2,4(1H,3H)-dione] | A ("A" is defined as 0% ≤ substrate protein remaining % ≤ 80%) | A ("A" is defined as 0% ≤ substrate protein remaining % ≤ 80%) | A ("A" is defined as 0% ≤ substrate protein remaining % ≤ 80%) | A ("A" is defined as 0% ≤ substrate protein remaining % ≤ 80%) | B ("B" is defined as 80%< substrate protein remaining %≤ 100%) | A ("A" is defined as 0% ≤ substrate protein remaining % ≤ 80%) | 100 to 300 nM | 300 to 500 nM | 300 to 500 nM
O=C1CCN(N2Cc3cc(CN4CCC(N(c5ccccc5)c5ccccc5)CC4)ccc3C2=O)C(=O)N1 [GT-04939, 1-(5-((4-(diphenylamino)piperidin-1-yl)methyl)-1-oxoisoindolin-2-yl)dihydropyrimidine-2,4(1H,3H)-dione] | A ("A" is defined as 0% ≤ substrate protein remaining % ≤ 80%) | A ("A" is defined as 0% ≤ substrate protein remaining % ≤ 80%) | A ("A" is defined as 0% ≤ substrate protein remaining % ≤ 80%) | A ("A" is defined as 0% ≤ substrate protein remaining % ≤ 80%) | A ("A" is defined as 0% ≤ substrate protein remaining % ≤ 80%) | A ("A" is defined as 0% ≤ substrate protein remaining % ≤ 80%) | 10 to 50 nM | 100 to 300 nM | 100 to 300 nM
O=C1CCN(N2Cc3cc(CN4CCC(N(c5ccccc5)c5ccccn5)CC4)ccc3C2=O)C(=O)N1 [GT-04940, 1-(1-oxo-5-((4-(phenyl(pyridin-2-yl)amino)piperidin-1-yl)methyl)isoindolin-2-yl)dihydropyrimidine-2,4(1H,3H)-dione] | A ("A" is defined as 0% ≤ substrate protein remaining % ≤ 80%) | A ("A" is defined as 0% ≤ substrate protein remaining % ≤ 80%) | A ("A" is defined as 0% ≤ substrate protein remaining % ≤ 80%) | A ("A" is defined as 0% ≤ substrate protein remaining % ≤ 80%) | A ("A" is defined as 0% ≤ substrate protein remaining % ≤ 80%) | A ("A" is defined as 0% ≤ substrate protein remaining % ≤ 80%) | 50 to 100 nM | 100 to 300 nM | 100 to 300 nM
